The source of these data is patent US20060229324A1, “Quinazolin-4-one derivatives” (priority 2002, published 2006).

The target of this assay is human hematopoietic prostaglandin D2 synthase (Homo sapiens, UniProt O60760). Description: Inhibitory activity against spleen-type (hematopoietic) prostaglandin D2 synthase, [14C]PGH2 to PGD2, TLC. As to conditions: for inhibition at 10 µM / inhibition at 30 µM: read-out: Inhibitory Ratio of Prostaglandin D2 (PGD2) Synthase (%). Format: biochemical. The procedure: A buffer solution of 100 mM Tris (hydroxymethyl)aminomethane/HCl buffer (pH8.0) containing glutathione (0.1 mM) and human hematopoietic prostaglandin D2 synthase (adequate quantity) was preincubated at 25° C. for 5 minutes in the presence or absence of a test compound, and then 14C labeled prostaglandin H2 ([14C]PGH2) (10 μM) was added, and the buffer solution was further incubated at 25° C. for one minute. A mixture of ether, methanol, and citric acid was added to the reaction mixture, and the ether layer was developed on silica gel thin-layer chromatography (TLC) (eluent=ether: methanol: acetic acid=90:2:1), and the PGD2 produced was measured by exposure to an imaging plate. The enzyme inhibitory rates of test compounds were calculated assuming the amount of production of PGD2 without the test compound being 100%.
human hematopoietic prostaglandin D2 synthase, sequence (O60760 whole entry): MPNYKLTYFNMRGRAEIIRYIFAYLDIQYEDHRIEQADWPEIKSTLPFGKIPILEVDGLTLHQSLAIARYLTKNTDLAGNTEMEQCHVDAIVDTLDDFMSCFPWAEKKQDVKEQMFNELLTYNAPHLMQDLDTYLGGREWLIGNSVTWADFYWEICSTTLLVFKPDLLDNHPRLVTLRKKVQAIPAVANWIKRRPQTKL

Regarding `CCc1nn(-c2ccccc2)c(O)c1/C=N/n1c(C)nc2ccccc2c1=O` [Compound 6, 3-[(3-ethyl-5-hydroxy-1-phenylpyrazol-4-yl)methylidene]-amino-2-methyl-3,4-dihydroquinazolin-4-one], the inhibition at 10 µM (Drug Concentration 10 μM) worked out at 18%.

For `CCOC(=O)CCCc1nn(-c2ccccc2)c(O)c1C=Nn1c(C)nc2ccccc2c1=O` [Compound 11, 3-({3-[3-(ethoxycarbonyl)propyl]-5-hydroxy-1-phenylpyrazol-4-yl}methylidene)amino-2-methyl-3,4-dihydroquinazolin-4-one], for the setting “Drug Concentration 10 μM”, the inhibition at 10 µM worked out at 45%.

For the compound `Cc1nc2ccccc2c(=O)n1N=Cc1c(CCCC(=O)O)nn(-c2ccccc2)c1O` [Compound 12, 3-{[3-(3-carboxypropyl)-5-hydroxy-1-phenylpyrazol-4-yl]methylidene}amino-2-methyl-3,4-dihydroquinazolin-4-one], for the setting “Drug Concentration 10 μM”, the inhibition at 10 µM was found to be 46%.

Take `Cc1nn(C)c(O)c1/C=N/n1c(C)nc2ccccc2c1=O` [Compound 14, 3-[(1,3-dimethyl-5-hydroxypyrazol-4-yl)methylidene]amino-2-methyl-3,4-dihydroquinazolin-4-one]: the inhibition at 10 µM (Drug Concentration 10 μM) was -2%. Where the note is “Drug Concentration 30 μM”, the inhibition at 30 µM amounted to 27%.

With `Cc1nn(-c2ccccc2Cl)c(O)c1C=Nn1c(C)nc2ccccc2c1=O` [Compound 15, 3-{[1-(2-chlorophenyl)-3-methyl-5-hydroxypyrazol-4-yl]-methylidene}amino-2-methyl-3,4-dihydroquinazolin-4-one], the inhibition at 10 µM (Drug Concentration 10 μM) came to 20%. Further, the inhibition at 30 µM (Drug Concentration 30 μM) was 53%.

For `Cc1nn(-c2cccc(Cl)c2)c(O)c1C=Nn1c(C)nc2ccccc2c1=O` [Compound 16, 3-{[1-(3-chlorophenyl)-3-methyl-5-hydroxypyrazol-4-yl]-methylidene}amino-2-methyl-3,4-dihydroquinazolin-4-one], the inhibition at 10 µM (Drug Concentration 10 μM) is 50%. The inhibition at 30 µM (Drug Concentration 30 μM) was found to be 81%.

Consider `Cc1ccc(-n2nc(C)c(C=Nn3c(C)nc4ccccc4c3=O)c2O)cc1` [Compound 18, 3-{[3-methyl-1-(4-methylphenyl)-5-hydroxypyrazol-4-yl]-methylidene}amino-2-methyl-3,4-dihydroquinazolin-4-one], for which the inhibition at 10 µM (Drug Concentration 10 μM) was 23%. In addition, where the note is “Drug Concentration 30 μM”, the inhibition at 30 µM came out at 37%.

As to `COc1ccc(-n2nc(C)c(C=Nn3c(C)nc4ccccc4c3=O)c2O)cc1` [Compound 19, 3-{[3-methyl-1-(4-methoxyphenyl)-5-hydroxypyrazol-4-yl]-methylidene}amino-2-methyl-3,4-dihydroquinazolin-4-one], the inhibition at 10 µM (Drug Concentration 10 μM) turned out to be 6%. Besides, the inhibition at 30 µM (Drug Concentration 30 μM) was 50%.

Take `CCc1nc2ccccc2c(=O)n1/N=C/c1c(C)nn(-c2ccccc2)c1O` [Compound 21]: where the note is “Drug Concentration 10 μM”, the inhibition at 10 µM amounted to 13%. Also, the inhibition at 30 µM (Drug Concentration 30 μM) worked out at 51%.

For the compound `Cc1nn(-c2ccccc2)c(O)c1/C=N/n1c(C(C)C)nc2ccccc2c1=O` [Compound 22, 3-[(5-hydroxy-3-methyl-1-phenylpyrazol-4-yl)methylidene]-amino-2-isopropyl-3,4-dihydroquinazolin-4-one], the inhibition at 10 µM (Drug Concentration 10 μM) worked out at 14%. Also, the inhibition at 30 µM (Drug Concentration 30 μM) amounted to 44%.

Consider `Cc1nn(-c2ccccc2)c(O)c1/C=N/n1c(CO)nc2ccccc2c1=O` [Compound 26, 3-[(5-hydroxy-3-methyl-1-phenylpyrazol-4-yl)methylidene]-amino-2-hydroxymethyl-3,4-dihydroquinazolin-4-one], for which the inhibition at 10 µM (Drug Concentration 10 μM) is 86%. In addition, the inhibition at 30 µM (Drug Concentration 30 μM) was determined as 71%.

Turning to `O=c1c2ccccc2nc(CO)n1/N=C/c1c(C(F)(F)F)nn(-c2ccccc2)c1O` [Compound 28], the inhibition at 10 µM (Drug Concentration 10 μM) came out at 19%. Further, the inhibition at 30 µM (Drug Concentration 30 μM) worked out at 30%.

As for `COCc1nc2ccccc2c(=O)n1N=Cc1c(C)nn(-c2ccccc2)c1O` [Compound 29, 3-[(5-hydroxy-3-methyl-1-phenylpyrazol-4-yl)methylidene]-amino-2-methoxymethyl-3,4-dihydroquinazolin-4-one], the “Inhibitory Ratio of Prostaglandin D2 (PGD2) Synthase (%)” value (from here on “Inhibitory Ratio … (%)”) turned out to be 20% (Drug Concentration 10 μM) and 40% (Drug Concentration 30 μM).

Take `COc1cccc(-c2nc3ccccc3c(=O)n2N=Cc2c(C)nn(-c3ccccc3)c2O)c1` [Compound 31, 3-[(5-hydroxy-3-methyl-1-phenylpyrazol-4-yl)methylidene]-amino-2-(3-methoxyphenyl)-3,4-dihydroquinazolin-4-one]: the “Inhibitory Ratio … (%)” value (Drug Concentration 10 μM) is 23% and the “Inhibitory Ratio … (%)” value (Drug Concentration 30 μM) was found to be 26%.

As for `COc1ccccc1-c1nc2ccccc2c(=O)n1N=Cc1c(C)nn(-c2ccccc2)c1O` [Compound 32, 3-[(5-hydroxy-3-methyl-1-phenylpyrazol-4-yl)methylidene]-amino-2-(2-methoxyphenyl)-3,4-dihydroquinazolin-4-one], the “Inhibitory Ratio … (%)” value (Drug Concentration 10 μM) stood at 12% and the “Inhibitory Ratio … (%)” value (Drug Concentration 30 μM) is listed as 15%.

Consider `Cc1nn(-c2ccccc2)c(O)c1/C=N/n1c(C)nc2cccc(C)c2c1=O` [Compound 33, 2,5-dimethyl-3-[(5-hydroxy-3-methyl-1-phenylpyrazol-4-yl)methylidene]amino-3,4-dihydroquinazolin-4-one], for which the inhibition at 10 µM (Drug Concentration 10 μM) came to 27%. Moreover, the inhibition at 30 µM (Drug Concentration 30 μM) came out at 61%.

For the compound `Cc1nn(-c2ccccc2)c(O)c1/C=N/n1c(C)nc2c(C)cccc2c1=O` [Compound 34, 2,8-dimethyl-3-[(5-hydroxy-3-methyl-1-phenylpyrazol-4-yl)methylidene]amino-3,4-dihydroquinazolin-4-one], the inhibition at 10 µM (Drug Concentration 10 μM) worked out at 71%. Besides, the inhibition at 30 µM (Drug Concentration 30 μM) was 84%.

Regarding `Cc1nn(-c2ccccc2)c(O)c1/C=N/n1c(C)nc2ccc(Cl)cc2c1=O` [Compound 35, 6-chloro-3-[(5-hydroxy-3-methyl-1-phenylpyrazol-4-yl)methylidene]amino-2-methyl-3,4-dihydroquinazolin-4-one], the inhibition at 10 µM (Drug Concentration 10 μM) amounted to 15%. Also, the inhibition at 30 µM (Drug Concentration 30 μM) is 68%.

As for `Cc1nn(-c2ccccc2)c(O)c1/C=N/n1c(C)nc2cc(Cl)ccc2c1=O` [Compound 36, 7-chloro-3-[(5-hydroxy-3-methyl-1-phenylpyrazol-4-yl)-methylidene]amino-2-methyl-3,4-dihydroquinazolin-4-one], the inhibition at 10 µM (Drug Concentration 10 μM) came to 39%. For the same compound, the inhibition at 30 µM (Drug Concentration 30 μM) was found to be 60%.

Regarding `COc1cc2nc(C)n(/N=C/c3c(C)nn(-c4ccccc4)c3O)c(=O)c2cc1OC` [Compound 38, 6,7-dimethoxy-3-[(5-hydroxy-3-methyl-1-phenylpyrazol-4-yl)-methylidene]amino-2-methyl-3,4-dihydroquinazolin-4-one], the inhibition at 10 µM (Drug Concentration 10 μM) came out at 20%. For the setting “Drug Concentration 30 μM”, the inhibition at 30 µM amounted to 51%.
